Reference: patent publication US7910591B2, “Piperazine derivatives of alkyl oxindoles” (EGIS Gyogyszergyar NYRT., priority 2004, dated 2011)
pIC50: −log10 of the molar value. Counter-ions that a name gives are not always drawn.

Columns and labels:
5-HT7 receptor = target: T1, 5-HT7 receptor (Homo sapiens, UniProt P34969); test: 5-HT7 receptor binding; conditions: human cloned receptors; ligand 3H-lizergic acid diethylamide (LSD) 1.0 nM; non-specific binding clozapine 25 μM
T1 construct: expressed in transfected cells
Protocol: (§1) For the determination of 5-HT7 receptor affinity human cloned receptors were used. The α1 receptor affinities were determined from isolated frontal cortex preparation of male Wistar rats weighing 120-200 g. The protein contents of membrane preparations were determined by the method of Lowry (1951).
(§2) In the course of 5-HT7 and α1 receptor binding studies the ligands were ^3H-lizergic acid diethylamide (LSD) (1.0 nM) and ^3H-prazosine (0.3 nM). Clozapine (25 μM) and prazosine (1 μM) were used for the measurement of non-specific bindings. The α1 receptor binding studies were carried out according to the methods of Reader, and Greengrass (Reader, T. A., Briere, R., Grondin, L.: J. Neural Transm. 68, p. 79 (1987); Greengrass, P., Brenner, R.: Eur. J. Pharmacol. 55, p. 323 (1979)).
(§3) IC50 is the concentration where the difference between the whole binding and non-specific binding is 50%. The compounds with an IC50 value smaller than […] were considered effective in this test.

α1 receptor = α1 receptor binding; parameters: species or system rat; conditions: isolated frontal cortex preparation of male Wistar rats; ligand 3H-prazosine 0.3 nM; non-specific binding prazosine 1 μM
Protocol: as §1, §2, §3

T1 sequence (P34969 whole entry): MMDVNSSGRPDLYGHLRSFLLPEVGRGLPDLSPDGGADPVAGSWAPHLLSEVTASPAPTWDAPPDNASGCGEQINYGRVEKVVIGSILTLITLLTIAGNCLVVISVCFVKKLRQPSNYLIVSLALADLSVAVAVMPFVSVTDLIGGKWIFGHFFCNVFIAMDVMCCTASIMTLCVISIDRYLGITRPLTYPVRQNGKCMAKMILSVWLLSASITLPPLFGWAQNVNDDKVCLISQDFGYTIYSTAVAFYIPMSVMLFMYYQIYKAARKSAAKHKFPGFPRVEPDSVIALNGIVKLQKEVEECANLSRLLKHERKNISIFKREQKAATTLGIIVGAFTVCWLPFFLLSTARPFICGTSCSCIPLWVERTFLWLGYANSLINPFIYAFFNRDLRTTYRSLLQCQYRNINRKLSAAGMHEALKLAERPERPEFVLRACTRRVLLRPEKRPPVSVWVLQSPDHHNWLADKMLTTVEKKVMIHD

| pIC50 (5-HT7 receptor) | pIC50 (α1 receptor) | melting point | Compound |
| --- | --- | --- | --- |
| > 7.00 | > 7.00 | 136 to 137 °C | O=C1Nc2cc(F)ccc2C1CCCCN1CCN(c2ccccn2)CC1 (stereo not shown) [Example 8, 6-Fluoro-3-[4-(4-pyridin-2-yl-piperazine-1-yl)-butyl]-1,3-dihydro-2H-indol-2-one] |
| – | – | 208 to 211 °C | COc1cccc(N2CCN(CCCCC3C(=O)Nc4ccccc43)CC2)c1 (stereo not shown) (as salt: oxalate) [Example 9, 3-{4-[4-(3-Methoxyphenyl)-piperazine-1-yl]-butyl}-1,3-dihydro-2H-indol-2-one Monooxalate] |
| – | – | 211 to 214 °C | COc1cccc(N2CCN(CCCCC3C(=O)Nc4ccc(F)cc43)CC2)c1 (stereo not shown) (as salt: oxalate) [Example 12, 5-Fluoro-3-{4-[4-3-methoxyphenyl)-piperazine-1-yl]-butyl}-1,3-dihydro-2H-indol-2-one Monooxalate] |
| > 7.00 | > 7.00 | – | COc1cccc(N2CCN(CCCCC3C(=O)Nc4ccc(F)cc43)CC2)c1 (stereo not shown) [Example 12, 5-Fluoro-3-{4-[4-3-methoxyphenyl)-piperazine-1-yl]-butyl}-1,3-dihydro-2H-indol-2-one Monooxalate] |
| > 7.00 | > 7.30 | 146 to 148 °C | O=C1Nc2ccc(F)cc2C1CCCCN1CCN(c2cc(Cl)cc3c2OCCO3)CC1 (stereo not shown) [Example 10, 3-{4-[4(7-Chloro-2,3-dihydrobenzo[1,4]dioxin-5-yl)piperazine-1-yl]-butyl}-5-fluoro-1,3-dihydro-2H-indol-2-one] |
| > 7.00 | – | – | COc1cccc(N2CCN(CCCCC3C(=O)Nc4ccccc43)CC2)c1 (stereo not shown) [Example 9, 3-{4-[4-(3-Methoxyphenyl)-piperazine-1-yl]-butyl}-1,3-dihydro-2H-indol-2-one Monooxalate] |
| > 7.00 | – | – | COc1ccc(Cl)cc1N1CCN(CCCCC2C(=O)Nc3ccccc32)CC1 (stereo not shown) [Example 11, 3-{4-[4-(5-Chloro-2-methoxyphenyl)-piperazine-1-yl]-butyl}-1,3-dihydro-2H-indol-2-one Monohydrochloride] |
| – | – | 236 to 238 °C | O=C1Nc2ccccc2C1CCCCN1CCN(c2cc(Cl)cc3c2OCCO3)CC1 (stereo not shown) (as salt: oxalate) [Example 6, 3-{4-[4-(7-Chloro-2,3-dihydrobenzo[1,4]dioxin-5-yl)-piperazine-1-yl]-butyl}-1,3-dihydro-2H-indol-2-one Monooxalate] |
| – | – | 91 to 94 °C | COc1ccc(Cl)cc1N1CCN(CCCCC2C(=O)Nc3ccccc32)CC1 (stereo not shown) (as salt: hydrochloride) [Example 11, 3-{4-[4-(5-Chloro-2-methoxyphenyl)-piperazine-1-yl]-butyl}-1,3-dihydro-2H-indol-2-one Monohydrochloride] |
| > 7.00 | – | – | O=C1Nc2ccccc2C1CCCCN1CCN(c2cc(Cl)cc3c2OCCO3)CC1 (stereo not shown) [Example 6, 3-{4-[4-(7-Chloro-2,3-dihydrobenzo[1,4]dioxin-5-yl)-piperazine-1-yl]-butyl}-1,3-dihydro-2H-indol-2-one Monooxalate] |
| – | – | 132 to 134 °C | O=C1Nc2ccc(F)cc2C1CCCCN1CCN(c2ccccn2)CC1 (stereo not shown) [Example 7, 5-Fluoro-3-[4-(4-pyridin-2-yl-piperazine-1-yl)-butyl]-1,3-dihydro-2H-indol-2-one] |
| > 7.00 | > 7.00 | 131 to 132 °C | O=C1Nc2ccccc2C1CCCCN1CCN(c2ccccn2)CC1 (stereo not shown) [Example 5, 3-[4-(4-Pyridin-2-yl-piperazine-1-yl)-butyl]-1,3-dihydro-2H-indol-2-one] |
